From patent US20240124491A1, “METHODS AND COMPOUNDS FOR TREATING FRIEDREICH'S ATAXIA” (Design Therapeutics, Inc., priority 2021, published 2024)

These molecules were tested on human FXN (assay: EC50 assay: FXN mRNA expression by qRT-PCR in GM15850 cells after 48 hrs compound treatment). Conditions: Homo sapiens, 48 hrs incubation, hFXN expression normalized to hGAPDH (qRT-PCR), read-out: EC50 WT (nM, 48 hr).
Assay type: cell-based
How it was run: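 FXN transcript, normalized to GAPDH by TaqMan qRT-PCR, read out after 48 hrs of compound on GM15850 cells plated at 150,000 per well. Dosing used five 3-fold steps from 150 nM final, vehicle 0.01% DMSO.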

SMILES	EC50 [nM]
Cc1sc2c(c1C)C(c1ccc(Cl)cc1)=N[C@@H](CC(=O)N1CCC(C#CC#CC3CCN(CCOCCOCCOCCOCCOCCOCCOCCNC(=O)CCNC(=O)c4nc(NC(=O)CCNC(=O)c5cc(NC(=O)c6nc(NC(=O)CCNC(=O)c7cc(NC(=O)c8nccn8C)cn7C)cn6C)cn5C)cn4C)CC3)CC1)c1nnc(C)n1-2 [Compound 142]	< 100
Cc1sc2c(c1C)C(c1ccc(Cl)cc1)=N[C@@H](CC(=O)NC1CCN(CCOCCOCCOCCOCCOCCOCCOCCNC3CCN(C(=O)CCNC(=O)c4nc(NC(=O)CCNC(=O)c5nc(NC(=O)c6nc(NC(=O)CCNC(=O)c7cc(NC(=O)c8nccn8C)cn7C)cn6C)cn5C)cn4C)CC3)CC1)c1nnc(C)n1-2 [Compound 99]	100 to 500
Cc1sc2c(c1C)C(c1ccc(Cl)cc1)=N[C@H](CC(=O)Nc1ccc(OCCOCCOCCOCCOCCOCCOCCOCCOCCNC(=O)CCNC(=O)c3nc(NC(=O)CCNC(=O)c4cc(NC(=O)c5nc(NC(=O)CCNC(=O)c6cc(NC(=O)c7nccn7C)cn6C)cn5C)cn4C)cn3C)cc1)c1nnc(C)n1-2 [Compound 231]	< 100
Cc1cc(F)cc(C)c1Oc1ccc(C(C)(C)O)cc1-c1cn(C)c(=O)c2[nH]c(C(=O)Nc3ccc(OCCOCCOCCOCCOCCOCCOCCOCCOCCNC(=O)CCNC(=O)c4nc(NC(=O)CCNC(=O)c5cc(NC(=O)c6nc(NC(=O)CCNC(=O)c7cc(NC(=O)c8nccn8C)cn7C)cn6C)cn5C)cn4C)c(OC(=O)c4cc5c(-c6cc(C(C)(C)O)ccc6Oc6c(C)cc(F)cc6C)cn(C)c(=O)c5[nH]4)c3)cc12 [Compound 240]	< 100
Cc1sc2c(c1C)C(c1ccc(Cl)cc1)=N[C@@H](CC(=O)N1CCC(CN3CCN(CCOCCOCCOCCOCCOCCOCCNC(=O)CCNC(=O)c4nc(NC(=O)CCNC(=O)C5=CC(NC(=O)c6nc(NC(=O)CCNC(=O)c7cc(NC(=O)c8nccn8C)cn7C)cn6C)CN5C)cn4C)CC3)CC1)c1nnc(C)n1-2 (stereo partly shown) [Compound 57]	100 to 500
Cc1c(C(=O)NCCN2CCN(C)CC2)sc2c1C(c1ccc(Cl)cc1)=N[C@@H](CC(=O)N1CCC(C#CC#CC3CCN(CCOCCOCCOCCOCCNC(=O)CCNC(=O)c4nc(NC(=O)CCNC(=O)c5cc(NC(=O)c6nc(NC(=O)CCNC(=O)c7cc(NC(=O)c8nccn8C)cn7C)cn6C)cn5C)cn4C)CC3)CC1)c1nnc(C)n1-2 [Compound 131]	100 to 500
Cc1sc2c(c1C)C(c1ccc(Cl)cc1)=N[C@@H](CC(=O)Nc1ccc(N3CCN(CC4CCN(CCOCCOCCOCCOCCOCCNC(=O)CCNC(=O)c5nc(NC(=O)CCNC(=O)c6cc(NC(=O)c7nc(NC(=O)CCNC(=O)c8cc(NC(=O)c9nccn9C)cn8C)cn7C)cn6C)cn5C)CC4)CC3)cc1)c1nnc(C)n1-2 [Compound 5]	100 to 500
COCCOCCOCCOCCOCCOCCOCCOCCOCCOCCOCCC(=O)N1CCC(NC(=O)CCOCCOCCOCCN2CCC(NC(=O)C[C@@H]3N=C(c4ccc(Cl)cc4)c4c(sc(C)c4C)-n4c(C)nnc43)CC2)(C(=O)NCCOCCOCCOCCOCCNC(=O)CCNC(=O)c2nc(NC(=O)CCNC(=O)c3cc(NC(=O)c4nc(NC(=O)CCNC(=O)c5cc(NC(=O)c6nccn6C)cn5C)cn4C)cn3C)cn2C)CC1 [Compound 76]	100 to 500
Cc1sc2c(c1C)C(c1ccc(Cl)cc1)=N[C@@H](CC(=O)N1CCC(C#CC#CCNCCOCCOCCOCCOCCNC(=O)CCNC(=O)c3nc(NC(=O)CCNC(=O)c4cc(NC(=O)c5nc(NC(=O)CCNC(=O)c6cc(NC(=O)c7nccn7C)cn6C)cn5C)cn4C)cn3C)CC1)c1nnc(C)n1-2 [Compound 79]	< 100
Cc1sc2c(c1C)C(c1ccc(Cl)cc1)=N[C@@H](CC(=O)Nc1ccc(C#CC#CCNCCOCCOCCOCCOCCNC(=O)CCNC(=O)c3nc(NC(=O)CCNC(=O)c4cc(NC(=O)c5nc(NC(=O)CCNC(=O)c6cc(NC(=O)c7nccn7C)cn6C)cn5C)cn4C)cn3C)cc1)c1nnc(C)n1-2 [Compound 16]	< 100
Cc1cc(F)cc(C)c1Oc1ccc(C(C)(C)O)cc1-c1cn(C)c(=O)c2[nH]c(C(=O)Nc3ccc(OCCOCCOCCOCCOCCOCCOCCOCCn4cc(CNC(=O)c5nc(NC(=O)CCNC(=O)c6cc(NC(=O)c7nc(NC(=O)CCNC(=O)c8cc(NC(=O)c9nccn9C)cn8C)cn7C)cn6C)cn5C)nn4)cc3)cc12 [Compound 217, N-({1-[23-(4-{4-[2-(4-fluoro-2,6-dimethylphenoxy)-5-(2-hydroxypropan-2-yl)phenyl]-6-methyl-7-oxo-1H-pyrrolo[2,3-c]pyridine-2-amido}phenoxy)-3,6,9,12,15,18,21-heptaoxatricosan-1-yl]-1,2,3-triazol-4-yl}methyl)-1-methyl-4-[3-({1-methyl-4-[1-methyl-4-(3-{[1-methyl-4-(1-methylimidazole-2-amido)pyrrol-2-yl]formamido}propanamido)imidazole-2-amido]pyrrol-2-yl}formamido)propanamido]imidazole-2-carboxamide]	< 100
Cc1sc2c(c1C)C(c1ccc(Cl)cc1)=N[C@@H](CC(=O)NC1CCN(CCOCCOCCOCCC(=O)NC3(C(=O)NCCOCCOCCOCCOCCNC(=O)CCNC(=O)c4nc(NC(=O)CCNC(=O)c5cc(NC(=O)c6nc(NC(=O)CCNC(=O)c7cc(NC(=O)c8nccn8C)cn7C)cn6C)cn5C)cn4C)CCN(CC(F)(F)F)CC3)CC1)c1nnc(C)n1-2 [Compound 73]	100 to 500
Cc1sc2c(c1C)C(c1ccc(Cl)cc1)=N[C@@H](CC(=O)Nc1ccc(C#CC#CCN(CCOCCOCCOCCOCCOCCN)CCOCCOCCOCCOCCOCCNC(=O)CCNC(=O)c3nc(NC(=O)CCNC(=O)c4cc(NC(=O)c5nc(NC(=O)CCNC(=O)c6cc(NC(=O)c7nccn7C)cn6C)cn5C)cn4C)cn3C)cc1)c1nnc(C)n1-2 [Compound 104]	100 to 500
CC(=O)N1c2ccc(-c3ccc(C(=O)N4CCC(C#CC#CC5CCN(CCOCCOCCOCCOCCOCCOCCNC(=O)CCNC(=O)c6nc(NC(=O)CCNC(=O)c7cc(NC(=O)c8nc(NC(=O)CCNC(=O)c9cc(NC(=O)c%10nccn%10C)cn9C)cn8C)cn7C)cn6C)CC5)CC4)cc3)cc2C(Nc2ccc(Cl)cc2)C[C@@H]1C (stereo partly shown) [Compound 150]	< 100
Cc1sc2c(c1C)C(c1ccc(Cl)cc1)=N[C@@H](CC(=O)Nc1ccc(C#CC3CCN(CCOCCOCCOCCOCCOCCOCCNC(=O)CCNC(=O)c4nc(NC(=O)CCNC(=O)c5cc(NC(=O)c6nc(NC(=O)CCNC(=O)c7cc(NC(=O)c8nccn8C)cn7C)cn6C)cn5C)cn4C)CC3)cc1)c1nnc(C)n1-2 [Compound 11]	< 100
Cc1sc2c(c1C)C(c1ccc(Cl)cc1)=N[C@@H](CC(=O)N1CC(C#CC#CC3CN(CCOCCOCCOCCOCCNC(=O)CCNC(=O)c4nc(NC(=O)CCNC(=O)c5cc(NC(=O)c6nc(NC(=O)CCNC(=O)c7cc(NC(=O)c8nccn8C)cn7C)cn6C)cn5C)cn4C)C3)C1)c1nnc(C)n1-2 [Compound 126]	< 100
Cc1cc(F)cc(C)c1Oc1ccc(C(C)(C)O)cc1-c1cn(C)c(=O)c2[nH]c(C(=O)NC3CCN(CCOCCOCCOCCOCCOCCOCCOCCOCCNC(=O)CCNC(=O)c4nc(NC(=O)CCNC(=O)c5cc(NC(=O)c6nc(NC(=O)CCNC(=O)c7cc(NC(=O)c8nccn8C)cn7C)cn6C)cn5C)cn4C)CC3)cc12 [Compound 47]	< 100
Cc1sc2c(c1C)C(c1ccc(Cl)cc1)=N[C@@H](CC(=O)N1CCC(C#CC#CC3CCN(CCNC(=O)CCNC(=O)c4nc(NC(=O)CCNC(=O)c5cc(NC(=O)c6nc(NC(=O)CCNC(=O)c7cc(NC(=O)c8nccn8C)cn7C)cn6C)cn5C)cn4C)CC3)CC1)c1nnc(C)n1-2 [Compound 161]	< 100
Cc1sc2c(c1C)C(c1ccc(Cl)cc1)=N[C@@H](CC(=O)NC1CCN(C3CN(CCOCCOCCOCCOCCOCCOCCOCCNC(=O)CCNC(=O)c4nc(NC(=O)CCNC(=O)c5cc(NC(=O)c6nc(NC(=O)CCNC(=O)c7cc(NC(=O)c8nccn8C)cn7C)cn6C)cn5C)cn4C)C3)CC1)c1nnc(C)n1-2 [Compound 89]	< 100
Cc1sc2c(c1C)C(c1ccc(Cl)cc1)=N[C@@H](CC(=O)N1CCN(C3CN(CCOCCOCCOCCOCCOCCOCCNC(=O)CCNC(=O)c4nc(NC(=O)CCNC(=O)c5cc(NC(=O)c6nc(NC(=O)CCNC(=O)c7cc(NC(=O)c8nccn8C)cn7C)cn6C)cn5C)cn4C)C3)CC1)c1nnc(C)n1-2 [Compound 63]	100 to 500
Cc1cc(F)cc(C)c1Oc1ccc(C(C)(C)O)cc1-c1cn(C)c(=O)c2[nH]c(C(=O)NCCOCCOCCOCCOCCOCCOCCOCCOCCNC(=O)CCNC(=O)c3nc(NC(=O)CCNC(=O)c4cc(NC(=O)c5nc(NC(=O)CCNC(=O)c6cc(NC(=O)c7nccn7C)cn6C)cn5C)cn4C)cn3C)cc12 [Compound 50]	< 100
COc1ccc2c(c1)C(c1ccc(Cl)cc1)=N[C@@H](CC(=O)N1CCN(CCOCCOCCOCCN3CCN(CCOCCOCCOCCNC(=O)CCNC(=O)c4nc(NC(=O)CCNC(=O)c5cc(NC(=O)c6nc(NC(=O)CCNC(=O)c7cc(NC(=O)c8nccn8C)cn7C)cn6C)cn5C)cn4C)CC3)CC1)c1nnc(C)n1-2 [Compound 28]	> 500
Cc1sc2c(c1C)C(c1ccc(NC(=O)CCCCCCCCCCCCCCCNCCc3c[nH]c4ccccc34)cc1)=N[C@@H](CC(=O)Nc1ccc(OCCOCCOCCOCCOCCOCCOCCOCCOCCNC(=O)CCNC(=O)c3nc(NC(=O)CCNC(=O)c4cc(NC(=O)c5nc(NC(=O)CCNC(=O)c6cc(NC(=O)c7nccn7C)cn6C)cn5C)cn4C)cn3C)cc1)c1nnc(C)n1-2 [Compound 200]	> 500
Cc1cc(F)cc(C)c1Oc1ccc(C(C)(C)O)cc1-c1cn(C)c(=O)c2[nH]c(C(=O)Nc3ccc(OCCOCCOCCOCCOCCOCCOCCOCCOCCNC(=O)CCNC(=O)c4nc(NC(=O)CCNC(=O)c5cc(NC(=O)c6nc(NC(=O)CCN)cn6C)cn5C)cn4C)cc3)cc12 [Compound 199, 4-(3-aminopropanamido)-N-(5-{[2-({2-[(2-{[26-(4-{4-[2-(4-fluoro-2,6-dimethylphenoxy)-5-(2-hydroxypropan-2-yl)phenyl]-6-methyl-7-oxo-1H-pyrrolo[2,3-c]pyridine-2-amido}phenoxy)-3,6,9,12,15,18,21,24-octaoxahexacosan-1-yl]carbamoyl}ethyl)carbamoyl]-1-methylimidazol-4-yl}carbamoyl)ethyl]carbamoyl}-1-methylpyrrol-3-yl)-1-methylimidazole-2-carboxamide]	> 500
COc1ccc2c(c1)C(c1ccc(Cl)cc1)=N[C@@H](CC(=O)N1CCN(C3CCN(CCOCCOCCOCCOCCOCCOCCNC(=O)CCNC(=O)c4nc(NC(=O)CCNC(=O)c5cc(NC(=O)c6nc(NC(=O)CCNC(=O)c7cc(NC(=O)c8nccn8C)cn7C)cn6C)cn5C)cn4C)CC3)CC1)c1nnc(C)n1-2 [Compound 54]	> 500
